# Columns and labels:
# [1] = In vivo stability test (plasma pharmacokinetics after single intravenous injection); settings: mouse
# Procedure: After 15 min of centrifugation at 5,000 rpm and 4 °C, the plasma was obtained and stored at -80 °C. Plasma peptide concentrations were quantified by ELISA, and pharmacokinetic profiles were analyzed using Phoenix WinNonlin 8.1 (Pharsight Corporation, Mountain View, CA, USA). The area under the plasma concentration-time curve (AUC), distribution half-time (T1/2), maximum plasma concentration (Cmax) and time required to reach maximum plasma concentration (Tmax) values were directly determined from the experimental data. […]
# (§1) bated at 37 °C for 0, 3, 6, 9, and 24 h. The portion of serum-treated peptide remaining was determined by calcu-lating the height of the respective elution peak in analytical-HPLC and comparing it with control without incuba- […]
# Plasma peptide concentrations were quantified by ELISA, and pharmacokinetic profiles were analyzed using Phoenix WinNonlin 8.1 (Pharsight Corporation, Mountain View, CA, USA). The data are presented as the means ± standard deviation.
# [2] = In vitro stability test in human serum; settings: 100 μM stock diluted 10-fold in 100% human serum, 37 °C, 0-24 h; analytical HPLC; triplicate
# Procedure: Stock solutions of peptides (100 μM) were diluted by a factor of 10 with pre-warmed 100% human serum (Sigma-Aldrich, St. Louis, MO, USA) and incubated at 37 °C for 0, 3, 6, 9, and 24 h. Controls with peptides in PBS were included. The action was stopped by denaturing the serum proteins with urea at a final concentration of 3 M at 4 °C for 10 min, followed by precipitation of serum proteins with trichloroacetic acid at a final concentration of 7% (v/v) (4 °C, 10 min) and centrifugation (17,000 × g, 10 min). The supernatant of each sample was recovered and run on an analytical column using a linear gradient of 5-65% solvent B for 30 min at a flow rate of 1 ml/min, where solvent A was water containing 0.1% TFA and solvent B was acetonitrile containing 0.1% TFA. The percentage of peptide remaining in serum-treated samples was determined by comparing the height of the peptide peak obtained at each time point with that of the peptide peak obtained at the 0 time point. […]
# as §1
# Plasma peptide concentrations were quantified by ELISA, and pharmacokinetic profiles were analyzed using Phoenix WinNonlin 8.1 (Pharsight Corporation, Mountain View, CA, USA). […]
# MDA-MB-231-luc xenograft = test: Tumorigenesis experiment, MDA-MB-231-luc breast cancer xenograft; settings: tail vein twice a week; for average tumor volume: day 21, n = 5; for final average tumor weight: n = 5
# Procedure: All animal experiments were performed in accordance with IACUC guidelines (GIST-2019-040). For tumorigenesis experiments, anesthetized 6-week-old female NOD-scid Il2rg^-^/^- mice (NPG^TM, VITALSTAR) were inoculated in the mammary fat pad with 1 × 10^6 MDA-MB-231-luc cells in a 100 μl volume (n = 5 for each group). After tumor cell inoculation, when the tumor volume reached approximately 100 mm^3, the mice were randomly divided into the following five groups: (i) control, (ii) low-dose paclitaxel (2 mg/kg), (iii) high-dose paclitaxel (10 mg/kg), (iv) AGM-330 (16.68 mg/kg, molar equivalent to 2 mg/kg of PTX), and (v) AGM-330-PTX (19.05 mg/kg, molar equivalent to 2 mg/kg of PTX). The tumor size was measured twice a week, and the tumor volume was calculated with the following formula: volume (mm^3) = [length (mm)] × [width (mm)]^2 × 0.5. For the bioluminescent imaging experiment, D-luciferin (150 mg/kg; PerkinElmer) was intraperitoneally injected into each mouse, and an IVIS 100 imaging system (Xenogen, Corporation, Alameda, CA) was used for bioluminescent monitoring. Mice were anesthetized with vaporized isofurane (BK Pharm, Ilsan, Korea) and placed in an imaging chamber. After 10 min, each animal was imaged with an exposure time of 1 min. All bioluminescent image data were obtained using Living Image software (version 4.5.2, PerkinElmer). Photons detected from tumors were converted to average radiance values (photon/sec/cm^2/sr), which are quantitative data obtained from a region of […] (ROI) and include the photons emitted by bioluminescent cells from an assigned rectangular area over the whole body of each mouse.
# A, Cell proliferation inhibition by AGM-330-PTX treatment was determined for 48 h by the WST assay in multiple breast and colorectal cancer cells and in normal cells. B, Schematic representation of the experimental protocol as described in the materials and methods section. Anesthetized 6‑week-old […] NPG mice were inoculated with a 1:1 mix of Matrigel and 1 × 10^6 MDA-MB-231-luc cells into the mammary fat pad. When the volume of primary tumors reached approximately 100 mm^3, tumor-bearing mice were treated with vehicle (PBS), PTX (2 or 10 mg/kg), AGM-330 (16.68 mg/kg, molar equivalent to 2 mg/kg of PTX), or AGM-330-PTX (19.05 mg/kg, molar equivalent to 2 mg/kg of PTX; n = 5/group). C-E, The therapeutic effect of AGM-330-PTX was evaluated in breast cancer xenograft models. C, Primary tumor volume was measured twice a week until the day of sacrifice. The primary tumor volume was calculated by the formula volume (mm^3) = (length (mm)) × (width (mm))^2 × 0.5. D, On the day of sacrifice, all primary tumors were isolated, and (E) the primary tumor weights were evaluated. F-I, Immunohistochemistry (IHC) sections of representative tumors with Ki-67 (F,H) and TUNEL (G,I) staining. Nuclei were stained with DAPI (blue). Scale bar, 50 µm. Bar graphs represent the mean ± SD, and statistical analyses were performed by one-way ANOVA with Dunnett's multiple comparison. *, **, and *** indicate P < 0.05, P < 0.01, and P < 0.001, respectively.
# Following in vitro proliferation analysis on cancer lines, we investigated whether AGM-330-PTX could be a potential therapeutic agent in vivo. We inoculated MDA-MB-231-luc cells into the mammary fat pad of NPG mice. After the […] tumors grew to 100 mm^3, comparative efficacy studies were performed by dividing the animals into five groups (n = 5/group) treated with vehicle (PBS), PTX (2 or 10 mg/kg, respectively), AGM-330 (16.68 mg/kg, molar equivalent to 2 mg/kg of PTX), or AGM-330-PTX (19.05 mg/kg, molar equivalent to 2 mg/kg of PTX) twice a week by tail vein injection (Figure 5B). Tumor growth was monitored by measuring volumes twice a week with a caliber rule over the course of 3 weeks.
# Figure S11. A-E, NPG TM mice bearing MDA-MB-231-luc tumors were treated twice a week for 21 days with […]
# MDA-MB-231 cells = test: cells; settings: Homo sapiens, MDA-MB-231, 48 h, read-out: IC50, MDA-MB-231 cells
# Procedure: (§2) Cancer and normal cells (1 × 10^4 cells/well) were seeded in 96-well plates, incubated for 24 h, and then treated with increasing concentrations of AGM-330, PTX, and AGM-330-PTX for 48 h. Cell viability was assessed by the CellVia WST-1 assay (Young In Frontier) according to the manufacturer's instructions. The numbers of viable cells were measured at a wavelength of 450 nm using a VersaMax ELISA plate reader (Molecular Devices, San Jose, CA, USA).
# (§3) Figure S3. A-C, Cancer and normal cells (1 × 10^4 cells/well) were seeded in 96-well plates. After 24 h of incuba-tion, the cells were treated with an increasing concentration of dimeric or tetrameric AGM-330 for 48 h. The viability of cells grown in 0 % FBS (A), 5 % FBS (B) or 10 % FBS (C) was assessed by a CellVia WST-1 assay (Young In Frontier, Seoul, Korea) according to the manufacturer’s instruction. The numbers of viable cells were measured at a wavelength of 450 nm using an VersaMax ELISA plate reader (Molecular Devices). D, E, Binding specificity of AGM-330. A whole-cell binding assay was performed to determine the cell binding of AGM-330 in 1 % FBS (D) or 5 % FBS (E). Scale bar, 200 μm.
# MCF-10A cells = test: cells; settings: Homo sapiens, MCF-10A, 48 h, read-out: IC50, MCF-10A cells
# Procedure: as §2, §3
# MDA-MB-231 = test: Whole-cell binding assay on OBOC peptide beads; type: cell-based, human; settings: peptide on TentaGel beads incubated with cells at 10^6 cells/ml; repeated 3 times
# Procedure: (§4) The beads were washed extensively with double-distilled water and phosphate-buffered saline (PBS; Welgene Inc., Korea) before screening. Cancer and normal cells were detached from culture dishes with trypsin/EDTA (Gibco), washed with their corresponding culture medium, resuspended at 10^6 cells/ml, and incubated with OBOC beads in Petri dishes in a humidified CO2 incubator at 37 °C with shaking (60 rpm). Beads bound by cells appeared under a microscope as rosettes in which a central bead was covered by one or more layers of cells. The positive beads were picked with a pipette under an inverted microscope, treated with guanidine-HCL (8 M, 20 min) to remove cells and proteins on the bead surface, and subjected to a second round of screening with normal breast epithelial cells to eliminate false positive binding.
# (§5) Note : Semiquantitative relative binding activity: “++++” very strong binding (>40 cells per bead), “+++” strong binding (30
# (§6) -20 cells per bead), “+ +” moderate binding (20 - 10 cells per bead), “+” weak binding (5-10 cells per bead), “-” no binding. […]
# (§7) Figure S1. A, Steps performed in peptide library synthesis and screening. 1, The split-mix synthesis method was performed to construct the combinatorial OBOC libraries. […]
# (§8) sized. 3, OBOC libraries were incubated with cancer cells in a CO2 incubator. 4, Beads carrying ligands with an affinity for cell surface molecules became covered with cells. 5, The positive beads were picked with a pipette under an inverted microscope. 6, The peptide sequences for positive beads were determined by Edman microse - […]
# (§9) peptide libraries. B, The binding specificities of the peptides against cancer cell and normal cells were deter- […]
# (§10) breast and colorectal cancer cells and normal breast and colorectal cells were re-suspended at 10^6 cells/ml and incubated with beads. All experiments were repeated 3 times. Scale bar, 200 μm.
# MCF-10A = test: Whole-cell binding assay on OBOC peptide beads; type: cell-based, human; settings: peptide on TentaGel beads incubated with cells at 10^6 cells/ml; repeated 3 times
# Procedure: as §4, §5, §6, §7, §8, §9, §10
# [3] = molecular target: T1, full length recombinant NCL (OriGene) (UniProt P19338 1-710); test: SPR; Biacore T-200, 25 °C; full length recombinant NCL amine-coupled on CM5 (about 1000 RU); AGM-330 20 nM - 2.5 μM injected at 30 μl/min; HBS-EP (10 mM HEPES pH 7.4, 0.15 M NaCl, 3.4 mM EDTA, 0.05% Triton-X 100); KD = kd/ka; settings: both partners purified
# T1 construct: nucleolin, full length recombinant protein from OriGene; no catalogue number, species or tags are printed; source: bought: OriGene
# T1 sequence (P19338 whole entry): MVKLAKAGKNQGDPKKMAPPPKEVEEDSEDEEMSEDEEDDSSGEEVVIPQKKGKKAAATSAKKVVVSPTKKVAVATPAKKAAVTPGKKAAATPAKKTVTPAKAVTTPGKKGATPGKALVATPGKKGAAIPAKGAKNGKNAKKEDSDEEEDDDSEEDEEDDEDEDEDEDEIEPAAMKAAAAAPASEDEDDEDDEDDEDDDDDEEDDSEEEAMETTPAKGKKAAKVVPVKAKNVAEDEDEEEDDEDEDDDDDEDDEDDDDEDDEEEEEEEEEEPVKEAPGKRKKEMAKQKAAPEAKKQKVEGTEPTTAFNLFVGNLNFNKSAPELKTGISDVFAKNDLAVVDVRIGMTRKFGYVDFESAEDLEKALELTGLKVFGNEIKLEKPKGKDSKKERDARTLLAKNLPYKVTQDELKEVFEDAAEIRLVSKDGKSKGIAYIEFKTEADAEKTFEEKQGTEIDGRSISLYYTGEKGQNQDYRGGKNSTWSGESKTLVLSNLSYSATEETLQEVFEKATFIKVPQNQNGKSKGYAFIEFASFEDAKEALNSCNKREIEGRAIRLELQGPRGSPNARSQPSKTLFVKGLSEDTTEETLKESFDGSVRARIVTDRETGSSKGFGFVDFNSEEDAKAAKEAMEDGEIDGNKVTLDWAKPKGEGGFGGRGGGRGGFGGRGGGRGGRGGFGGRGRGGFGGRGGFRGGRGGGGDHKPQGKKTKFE
Molecule,"Semiquantitative relative binding activity, MDA-MB-231 (MDA-MB-231)","Semiquantitative relative binding activity, MCF-10A (MCF-10A)",further results
CSCC[C@H](NC(=O)[C@H](C)NC(=O)CNC(=O)[C@H](Cc1c[nH]cn1)NC(=O)[C@@H](N)CCCNC(=N)N)C(=O)N[C@H](C(=O)N[C@@H](Cc1ccc(O)cc1)C(=O)N[C@@H](CC(C)C)C(=O)N[C@@H](CCCCN)C(=O)O)C(C)C [AGM-330m],,,Cmax [1]: 1270 ± 120 ng/mL; Tmax [1]: 10 min; degradation after incubation with serum [2]: rapidly degraded
"CC(=O)O[C@H]1C(=O)[C@@]2(C)[C@H]([C@H](OC(=O)c3ccccc3)[C@]3(O)C[C@H](OC(=O)[C@H](O)[C@@H](NC(=O)c4ccccc4)c4ccccc4)C(C)=C1C3(C)C)[C@]1(OC(C)=O)CO[C@@H]1C[C@@H]2O [PTX, paclitaxel, reference compound]",,,average tumor volume (MDA-MB-231-luc xenograft; 2 mg/kg): 1671 ± 199 mm^3; final average tumor weight (MDA-MB-231-luc xenograft; 2 mg/kg): 2.1 ± 0.4 g; average tumor volume (MDA-MB-231-luc xenograft; 10 mg/kg): 988 ± 78 mm^3; final average tumor weight (MDA-MB-231-luc xenograft; 10 mg/kg): 1.5 ± 0.1 g; IC50 (MDA-MB-231 cells): 370 nM; IC50 (MCF-10A cells): 450 nM
ADHRHRRSG [AGM-331],++++ (very strong binding (>40 cells per bead)),++ (moderate binding (20 - 10 cells per bead)),
AVARARRRR [AGM-332],+++ (strong binding (30 -20 cells per bead)),++ (moderate binding (20 - 10 cells per bead)),
"FGRLKKPLK [AGM-335, 9mer peptide hit from OBOC screening]",+ (weak binding (5-10 cells per bead)),+ (weak binding (5-10 cells per bead)),
"KRRRKAPTD [AGM-337, 9mer peptide hit from OBOC screening]",+ (weak binding (5-10 cells per bead)),+ (weak binding (5-10 cells per bead)),
"KRRRRERAG [AGM-336, 9mer peptide hit from OBOC screening]",+++ (strong binding (30 -20 cells per bead)),+++ (strong binding (30 -20 cells per bead)),
"RFLKNKKAR [AGM-333, 9mer peptide hit from OBOC screening]",++ (moderate binding (20 - 10 cells per bead)),+++ (strong binding (30 -20 cells per bead)),
"RWLKNKKAR [AGM-334, 9mer peptide hit from OBOC screening]",++ (moderate binding (20 - 10 cells per bead)),+++ (strong binding (30 -20 cells per bead)),
"RHGAMVYLK (PEG12 after the C-terminal Lys of each RHGAMVYLK arm (RHGAMVYLK-PEG12-OH), joined to a trilysine core, arm of the dendrimer; picked from a one-bead-one-compound library on MDA-MB-231 cells; The core is not written as a chain; also called tetrameric AGM-330; source: synthetic peptide (AnyGen, solid-phase peptide synthesis)) [AGM-330 (tetrameric multiple-antigen-peptide form)]",,,Kd [3]: 57.7 ± 12 nM

# — PMC7415810, “A novel nucleolin-binding peptide for Cancer Theranostics” (Theranostics, 2020)
